US10961236B2, “(S)-2-(1-cyclopropylethyl)-5-(4-methyl-2-((6-(2-oxopyrrolidin-1-yl)pyridin-2-yl)amino) thiazol-5-yl)-7-(methylsulfonyl)isoindolin-1-one as a phosphatidylinositol 3-kinase inhibitor” (AstraZeneca AB, priority 2016, dated 2021)

Assays:
Assay type in all cases: biochemical
[1] = target: recombinant human PI3Kδ (6-His(p110-p85α)) (Homo sapiens (Human), UniProt O00329); assay: Enzymatic activity assay for recombinant human PI3Kδ (ADP-Glo); conditions: 0.6 nM PI3Kδ, 20 μM ATP, 80 μM DiC8-PIP2, ADP-Glo
Procedure, shortened: (§1)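 ADP-Glo luminescence after DiC8-PIP2 (80 μM) phosphorylation with 20 μM ATP in 50 mM Tris pH 7.4, 3 mM MgCl2, 2.1 mM DTT, 0.05% CHAPS at room temperature. Enzyme 1.2 nM PI3Kγ or 0.6 nM PI3Kδ; inhibitors pre-incubated 15 min, then 60 min reaction.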

[2] = target: recombinant human PI3Kγ ((aa144-1102)-6His) (Homo sapiens (Human), UniProt P48736); assay: Enzymatic activity assay for recombinant human PI3Kγ (ADP-Glo); conditions: 1.2 nM PI3Kγ, 20 μM ATP, 80 μM DiC8-PIP2, ADP-Glo
Procedure, shortened: as §1

[3] = target: recombinant human PI3Kα (6-His(p110-p85α)) (Homo sapiens (Human), UniProt P42336); assay: Enzymatic activity assay for recombinant human PI3Kα (ADP-Glo); conditions: 1.2 nM PI3Kα, 20 μM ATP, 80 μM DiC8-PIP2, ADP-Glo
Procedure, shortened: (§2)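 ADP-Glo luminescence after DiC8-PIP2 phosphorylation at RT: 80 μM lipid substrate, 20 μM ATP, 1.2 nM enzyme (0.6 nM for δ) in Tris pH 7.4 with MgCl2, DTT, CHAPS. Compounds pre-incubated 15 min with enzyme, then 60 min reaction; DMSO ≤1%.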

[4] = target: recombinant human PI3Kβ (6-His(p110-p85α)) (Homo sapiens (Human), UniProt P42338); assay: Enzymatic activity assay for recombinant human PI3Kβ (ADP-Glo); conditions: 1.2 nM PI3Kβ, 20 μM ATP, 80 μM DiC8-PIP2, ADP-Glo
Procedure, shortened: as §2

Sequence of recombinant human PI3Kα (6-His(p110-p85α)) (P42336 whole entry): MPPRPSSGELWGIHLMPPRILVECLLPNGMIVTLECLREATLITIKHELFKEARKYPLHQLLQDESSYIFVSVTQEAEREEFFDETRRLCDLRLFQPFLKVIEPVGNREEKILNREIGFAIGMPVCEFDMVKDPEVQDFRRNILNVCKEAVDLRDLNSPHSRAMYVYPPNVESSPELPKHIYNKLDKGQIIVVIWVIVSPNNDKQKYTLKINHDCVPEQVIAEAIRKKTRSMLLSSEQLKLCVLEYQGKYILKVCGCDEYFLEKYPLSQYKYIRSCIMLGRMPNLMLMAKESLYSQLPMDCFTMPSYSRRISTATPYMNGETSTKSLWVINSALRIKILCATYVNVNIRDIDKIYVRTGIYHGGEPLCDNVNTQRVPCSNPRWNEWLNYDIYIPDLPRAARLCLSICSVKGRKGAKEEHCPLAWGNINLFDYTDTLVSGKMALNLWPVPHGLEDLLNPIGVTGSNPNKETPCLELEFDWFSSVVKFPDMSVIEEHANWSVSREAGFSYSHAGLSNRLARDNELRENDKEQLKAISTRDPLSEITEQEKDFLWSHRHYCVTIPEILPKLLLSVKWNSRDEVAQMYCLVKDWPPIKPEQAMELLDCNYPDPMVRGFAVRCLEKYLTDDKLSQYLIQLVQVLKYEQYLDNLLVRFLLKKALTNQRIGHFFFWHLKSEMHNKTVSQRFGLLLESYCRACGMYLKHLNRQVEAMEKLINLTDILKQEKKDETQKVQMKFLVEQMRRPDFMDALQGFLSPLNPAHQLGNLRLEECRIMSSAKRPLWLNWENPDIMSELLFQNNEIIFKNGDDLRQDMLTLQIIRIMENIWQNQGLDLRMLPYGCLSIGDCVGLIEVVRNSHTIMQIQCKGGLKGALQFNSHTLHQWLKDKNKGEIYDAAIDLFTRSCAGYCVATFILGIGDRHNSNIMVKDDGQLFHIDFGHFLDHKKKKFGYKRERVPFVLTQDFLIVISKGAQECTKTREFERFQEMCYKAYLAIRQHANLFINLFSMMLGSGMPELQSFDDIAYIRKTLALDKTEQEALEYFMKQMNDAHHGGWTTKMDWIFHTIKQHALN
Sequence of recombinant human PI3Kα (6-His(p110-p85α)) (P27986 whole entry partner): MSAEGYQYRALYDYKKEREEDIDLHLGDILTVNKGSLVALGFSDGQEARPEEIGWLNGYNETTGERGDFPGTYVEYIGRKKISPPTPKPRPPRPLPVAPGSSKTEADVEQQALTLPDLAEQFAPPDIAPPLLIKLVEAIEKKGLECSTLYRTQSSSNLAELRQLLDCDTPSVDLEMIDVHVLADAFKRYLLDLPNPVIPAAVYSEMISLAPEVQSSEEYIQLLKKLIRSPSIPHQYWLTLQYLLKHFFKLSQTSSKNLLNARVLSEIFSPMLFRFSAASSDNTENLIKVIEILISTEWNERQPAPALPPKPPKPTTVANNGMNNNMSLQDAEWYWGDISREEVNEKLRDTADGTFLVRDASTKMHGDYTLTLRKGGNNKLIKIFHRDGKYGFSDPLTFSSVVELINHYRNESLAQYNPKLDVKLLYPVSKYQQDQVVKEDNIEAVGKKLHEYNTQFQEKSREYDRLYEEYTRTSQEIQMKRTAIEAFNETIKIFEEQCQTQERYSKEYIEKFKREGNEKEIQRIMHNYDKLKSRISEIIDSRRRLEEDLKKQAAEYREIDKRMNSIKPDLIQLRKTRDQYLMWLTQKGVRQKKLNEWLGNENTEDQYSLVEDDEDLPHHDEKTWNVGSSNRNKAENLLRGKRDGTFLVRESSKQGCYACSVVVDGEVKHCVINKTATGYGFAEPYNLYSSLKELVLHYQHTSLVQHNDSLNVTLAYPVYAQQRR
Sequence of recombinant human PI3Kγ ((aa144-1102)-6His) (P48736 144-1102): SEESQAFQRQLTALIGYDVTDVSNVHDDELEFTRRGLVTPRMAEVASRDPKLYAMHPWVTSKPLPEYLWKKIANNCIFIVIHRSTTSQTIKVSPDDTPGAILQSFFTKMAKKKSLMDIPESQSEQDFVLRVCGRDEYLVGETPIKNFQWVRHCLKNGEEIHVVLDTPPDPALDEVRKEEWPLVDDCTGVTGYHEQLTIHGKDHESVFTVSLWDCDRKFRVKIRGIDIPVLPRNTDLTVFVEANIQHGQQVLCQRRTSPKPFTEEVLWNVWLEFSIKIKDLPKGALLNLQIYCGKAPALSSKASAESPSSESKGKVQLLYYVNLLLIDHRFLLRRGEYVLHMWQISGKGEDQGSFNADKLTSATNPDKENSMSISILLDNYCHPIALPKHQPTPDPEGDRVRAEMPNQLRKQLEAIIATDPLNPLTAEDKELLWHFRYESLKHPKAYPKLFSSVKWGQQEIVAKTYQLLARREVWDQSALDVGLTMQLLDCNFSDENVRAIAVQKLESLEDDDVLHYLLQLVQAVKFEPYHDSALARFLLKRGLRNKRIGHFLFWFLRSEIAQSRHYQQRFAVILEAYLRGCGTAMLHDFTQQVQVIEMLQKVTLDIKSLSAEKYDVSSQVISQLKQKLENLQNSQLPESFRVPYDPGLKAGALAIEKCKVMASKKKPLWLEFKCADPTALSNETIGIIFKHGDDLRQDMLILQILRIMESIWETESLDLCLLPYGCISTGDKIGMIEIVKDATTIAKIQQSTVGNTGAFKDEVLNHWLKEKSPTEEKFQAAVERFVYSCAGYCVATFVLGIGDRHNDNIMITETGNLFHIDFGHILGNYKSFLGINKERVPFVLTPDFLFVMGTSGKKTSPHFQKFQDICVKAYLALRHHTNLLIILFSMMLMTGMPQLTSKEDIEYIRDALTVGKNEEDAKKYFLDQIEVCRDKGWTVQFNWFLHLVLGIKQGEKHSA
Sequence of recombinant human PI3Kβ (6-His(p110-p85α)) (P42338 whole entry): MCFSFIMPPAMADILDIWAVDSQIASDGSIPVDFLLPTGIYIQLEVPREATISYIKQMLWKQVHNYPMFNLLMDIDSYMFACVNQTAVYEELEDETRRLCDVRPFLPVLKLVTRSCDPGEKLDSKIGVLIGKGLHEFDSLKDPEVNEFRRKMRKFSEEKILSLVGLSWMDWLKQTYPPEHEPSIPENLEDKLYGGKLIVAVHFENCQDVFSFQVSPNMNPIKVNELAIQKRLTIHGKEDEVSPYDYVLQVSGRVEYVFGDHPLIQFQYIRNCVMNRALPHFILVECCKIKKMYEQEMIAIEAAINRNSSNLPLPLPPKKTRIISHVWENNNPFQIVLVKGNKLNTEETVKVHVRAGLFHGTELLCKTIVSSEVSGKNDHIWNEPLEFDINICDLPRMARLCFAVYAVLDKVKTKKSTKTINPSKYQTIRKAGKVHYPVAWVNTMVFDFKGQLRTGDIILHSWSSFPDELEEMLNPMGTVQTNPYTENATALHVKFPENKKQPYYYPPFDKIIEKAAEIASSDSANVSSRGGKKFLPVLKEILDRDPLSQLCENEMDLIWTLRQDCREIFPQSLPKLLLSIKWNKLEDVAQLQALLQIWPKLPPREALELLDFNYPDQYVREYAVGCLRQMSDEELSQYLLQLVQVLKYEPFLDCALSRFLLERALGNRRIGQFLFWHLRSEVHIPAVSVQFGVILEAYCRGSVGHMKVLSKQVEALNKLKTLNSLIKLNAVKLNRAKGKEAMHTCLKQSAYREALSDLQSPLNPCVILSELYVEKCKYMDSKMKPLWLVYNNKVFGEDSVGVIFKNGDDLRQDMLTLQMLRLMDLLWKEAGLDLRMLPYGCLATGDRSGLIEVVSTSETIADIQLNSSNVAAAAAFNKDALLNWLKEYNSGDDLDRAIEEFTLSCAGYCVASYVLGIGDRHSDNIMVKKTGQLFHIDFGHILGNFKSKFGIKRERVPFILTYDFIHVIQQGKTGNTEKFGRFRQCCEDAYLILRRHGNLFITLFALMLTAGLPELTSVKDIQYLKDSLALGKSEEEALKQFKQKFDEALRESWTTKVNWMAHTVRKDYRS
Sequence of recombinant human PI3Kβ (6-His(p110-p85α)) (P27986 whole entry partner): as the sequence (P27986 whole entry partner) above
Sequence of recombinant human PI3Kδ (6-His(p110-p85α)) (O00329 whole entry): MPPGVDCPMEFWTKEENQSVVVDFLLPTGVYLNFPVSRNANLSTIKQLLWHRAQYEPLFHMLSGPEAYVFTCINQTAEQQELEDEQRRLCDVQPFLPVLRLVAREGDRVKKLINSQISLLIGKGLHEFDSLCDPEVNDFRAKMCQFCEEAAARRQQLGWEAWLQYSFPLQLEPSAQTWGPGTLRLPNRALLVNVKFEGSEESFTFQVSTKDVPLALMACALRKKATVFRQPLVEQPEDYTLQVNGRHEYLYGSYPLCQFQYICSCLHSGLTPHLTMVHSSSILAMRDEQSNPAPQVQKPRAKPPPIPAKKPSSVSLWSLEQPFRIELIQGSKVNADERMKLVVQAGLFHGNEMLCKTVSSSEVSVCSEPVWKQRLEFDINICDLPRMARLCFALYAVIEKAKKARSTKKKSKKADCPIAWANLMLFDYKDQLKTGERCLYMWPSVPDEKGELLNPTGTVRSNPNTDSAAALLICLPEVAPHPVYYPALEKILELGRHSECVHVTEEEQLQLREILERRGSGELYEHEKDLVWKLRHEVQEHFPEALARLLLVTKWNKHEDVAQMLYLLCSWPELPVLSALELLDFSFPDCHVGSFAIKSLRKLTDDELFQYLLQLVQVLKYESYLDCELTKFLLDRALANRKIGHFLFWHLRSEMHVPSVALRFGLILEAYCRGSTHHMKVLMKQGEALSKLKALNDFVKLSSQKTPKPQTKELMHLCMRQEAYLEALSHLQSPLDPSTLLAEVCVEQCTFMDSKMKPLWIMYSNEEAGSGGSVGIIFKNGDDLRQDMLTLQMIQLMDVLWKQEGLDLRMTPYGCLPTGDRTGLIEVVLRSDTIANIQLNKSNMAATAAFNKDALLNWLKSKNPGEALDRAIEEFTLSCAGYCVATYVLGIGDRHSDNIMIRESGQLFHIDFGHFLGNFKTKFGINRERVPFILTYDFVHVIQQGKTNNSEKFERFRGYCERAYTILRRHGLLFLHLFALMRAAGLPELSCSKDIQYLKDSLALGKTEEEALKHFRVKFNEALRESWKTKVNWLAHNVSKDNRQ
Sequence of recombinant human PI3Kδ (6-His(p110-p85α)) (P27986 whole entry partner): as the sequence (P27986 whole entry partner) above

| IC50 [1] | IC50 [2] | IC50 [3] | IC50 [4] | SMILES |
| --- | --- | --- | --- | --- |
| 0.8 nM | 1 nM | 24 nM | 123 nM | CNS(=O)(=O)c1cc(-c2sc(Nc3cccc(N4C(=O)CNC[C@H]4C)n3)nc2C)cc2c1C(=O)N([C@@H](C)C1CC1)C2 [Example 46, 2-[(1S)-1-Cyclopropylethyl]-N-methyl-6-[4-methyl-2-({6-[(2R)-2-methyl-6-oxopiperazin-1-yl]pyridin-2-yl}amino)-1,3-thiazol-5-yl]-3-oxo-2,3-dihydro-1H-isoindole-4-sulfonamide] |
| 4.4 nM | 1.3 nM | 97 nM | 824 nM | CNS(=O)(=O)c1cc(-c2sc(Nc3cccc(N4CCNC(C)(C)C4=O)n3)nc2C)cc2c1C(=O)N([C@@H](C)C1CC1)C2 [Example 47, 2-[(1S)-1-Cyclopropylethyl]-6-(2-{[6-(3,3-dimethyl-2-oxopiperazin-1-yl)pyridin-2-yl]amino}-4-methyl-1,3-thiazol-5-yl)-N-methyl-3-oxo-2,3-dihydro-1H-isoindole-4-sulfonamide] |
| 0.7 nM | 1.5 nM | 19 nM | 199 nM | CNS(=O)(=O)c1cc(-c2sc(Nc3cccc(N4CC(C)(C)NCC4=O)n3)nc2C)cc2c1C(=O)N([C@@H](C)C1CC1)C2 [Example 48, 2-[(1S)-1-Cyclopropylethyl]-6-(2-{[6-(5,5-dimethyl-2-oxopiperazin-1-yl)pyridin-2-yl]amino}-4-methyl-1,3-thiazol-5-yl)-N-methyl-3-oxo-2,3-dihydro-1H-isoindole-4-sulfonamide] |
| 2.6 nM | 1.9 nM | 87 nM | 800 nM | CNS(=O)(=O)c1cc(-c2sc(Nc3cccc(N4C(=O)CNC[C@@H]4C)n3)nc2C)cc2c1C(=O)N([C@@H](C)C1CC1)C2 [Example 49, 2-[(1S)-1-Cyclopropylethyl]-N-methyl-6-[4-methyl-2-({6-[(2S)-2-methyl-6-oxopiperazin-1-yl]pyridin-2-yl}amino)-1,3-thiazol-5-yl]-3-oxo-2,3-dihydro-1H-isoindole-4-sulfonamide] |
| 0.8 nM | 1.4 nM | 54 nM | 271 nM | CCNS(=O)(=O)c1cc(-c2sc(Nc3cccc(N4CCNCC4=O)n3)nc2C)cc2c1C(=O)N([C@@H](C)C1CC1)C2 [Example 50, 2-[(1S)-1-Cyclopropylethyl]-N-ethyl-6-(4-methyl-2-{[6-(2-oxopiperazin-1-yl)pyridin-2-yl]amino}-1,3-thiazol-5-yl)-3-oxo-2,3-dihydro-1H-isoindole-4-sulfonamide] |
| 1.1 nM | 1.5 nM | 134 nM | 415 nM | Cc1nc(Nc2cccc(N3CCNCC3=O)n2)sc1-c1cc2c(c(S(=O)(=O)NC(C)C)c1)C(=O)N([C@@H](C)C1CC1)C2 [Example 51, 2-[(1S)-1-Cyclopropylethyl]-6-(4-methyl-2-{[6-(2-oxopiperazin-1-yl)pyridin-2-yl]amino}-1,3-thiazol-5-yl)-3-oxo-N-(propan-2-yl)-2,3-dihydro-1H-isoindole-4-sulfonamide] |
| 0.7 nM | 1.4 nM | 64 nM | 264 nM | CNS(=O)(=O)c1cc(-c2sc(Nc3cccc(N4CCNCCC4=O)n3)nc2C)cc2c1C(=O)N([C@@H](C)C1CC1)C2 [Example 53, 2-[(1S)-1-Cyclopropylethyl]-N-methyl-6-(4-methyl-2-{[6-(7-oxo-1,4-diazepan-1-yl)pyridin-2-yl]amino}-1,3-thiazol-5-yl)-3-oxo-2,3-dihydro-1H-isoindole-4-sulfonamide] |
| 0.5 nM | 0.9 nM | 14 nM | 325 nM | CNS(=O)(=O)c1cc(-c2sc(Nc3cccc(N4CC[C@@H](O)C4=O)n3)nc2C)cc2c1C(=O)N([C@@H](C)C1CC1)C2 [Example 54, 2-[(1S)-1-Cyclopropylethyl]-6-[2-({6-[(3R)-3-hydroxy-2-oxopyrrolidin-1-yl]pyridin-2-yl}amino)-4-methyl-1,3-thiazol-5-yl]-N-methyl-3-oxo-2,3-dihydro-1H-isoindole-4-sulfonamide] |
| 1.1 nM | 0.9 nM | 40 nM | 386 nM | CNS(=O)(=O)c1cc(-c2sc(Nc3cccc(N4C[C@H](O)CC4=O)n3)nc2C)cc2c1C(=O)N([C@@H](C)C1CC1)C2 [Example 55, 2-[(1S)-1-Cyclopropylethyl]-6-[2-({6-[(4R)-4-hydroxy-2-oxopyrrolidin-1-yl]pyridin-2-yl}amino)-4-methyl-1,3-thiazol-5-yl]-N-methyl-3-oxo-2,3-dihydro-1H-isoindole-4-sulfonamide] |
| 0.5 nM | 1 nM | 26 nM | 249 nM | CNS(=O)(=O)c1cc(-c2sc(Nc3cccc(N4CC[C@H](O)C4=O)n3)nc2C)cc2c1C(=O)N([C@@H](C)C1CC1)C2 [Example 56, 2-[(1S)-1-Cyclopropylethyl]-6-[2-({6-[(3S)-3-hydroxy-2-oxopyrrolidin-1-yl]pyridin-2-yl}amino)-4-methyl-1,3-thiazol-5-yl]-N-methyl-3-oxo-2,3-dihydro-1H-isoindole-4-sulfonamide] |
| 0.7 nM | 1.2 nM | 11 nM | 85 nM | CNS(=O)(=O)c1cc(-c2sc(Nc3cccc(N4C(=O)CC[C@H]4CO)n3)nc2C)cc2c1C(=O)N([C@@H](C)C1CC1)C2 [Example 57, 2-[(1S)-1-Cyclopropylethyl]-6-[2-({6-[(2S)-2-(hydroxymethyl)-5-oxopyrrolidin-1-yl]pyridin-2-yl}amino)-4-methyl-1,3-thiazol-5-yl]-N-methyl-3-oxo-2,3-dihydro-1H-isoindole-4-sulfonamide] |
| 2.9 nM | 1.2 nM | 43 nM | 998 nM | CNS(=O)(=O)c1cc(-c2sc(Nc3cccc(N4C(=O)CC[C@@H]4CO)n3)nc2C)cc2c1C(=O)N([C@@H](C)C1CC1)C2 [Example 58, 2-[(1S)-1-Cyclopropylethyl]-6-[2-({6-[(2R)-2-(hydroxymethyl)-5-oxopyrrolidin-1-yl]pyridin-2-yl}amino)-4-methyl-1,3-thiazol-5-yl]-N-methyl-3-oxo-2,3-dihydro-1H-isoindole-4-sulfonamide] |
| 0.7 nM | 0.9 nM | 27 nM | 481 nM | CNS(=O)(=O)c1cc(-c2sc(Nc3cccc(N4CCN(CCO)CC4=O)n3)nc2C)cc2c1C(=O)N([C@@H](C)C1CC1)C2 [Example 59, 2-[(1S)-1-Cyclopropylethyl]-6-[2-({6-[4-(2-hydroxyethyl)-2-oxopiperazin-1-yl]pyridin-2-yl}amino)-4-methyl-1,3-thiazol-5-yl]-N-methyl-3-oxo-2,3-dihydro-1H-isoindole-4-sulfonamide] |
| 0.5 nM | 1.2 nM | 57 nM | 322 nM | Cc1nc(Nc2cccc(N3CC[C@H](O)C3=O)n2)sc1-c1cc2c(c(S(=O)(=O)NC(C)C)c1)C(=O)N([C@@H](C)C(F)(F)F)C2 [Example 60, 6-[2-({6-[(3S)-3-Hydroxy-2-oxopyrrolidin-1-yl]pyridin-2-yl}amino)-4-methyl-1,3-thiazol-5-yl]-3-oxo-N-(propan-2-yl)-2-[(2S)-1,1,1-trifluoropropan-2-yl]-2,3-dihydro-1H-isoindole-4-sulfonamide] |
| 2.1 nM | 0.8 nM | 162 nM | 1150 nM | CC[C@H](C)N1Cc2cc(-c3sc(Nc4cccc(N5CCOCC5=O)n4)nc3C)cc(S(=O)(=O)NC)c2C1=O [Example 62, 2-[(2S)-Butan-2-yl]-N-methyl-6-(4-methyl-2-{[6-(3-oxomorpholin-4-yl)pyridin-2-yl]amino}-1,3-thiazol-5-yl)-3-oxo-2,3-dihydro-1H-isoindole-4-sulfonamide] |
| 0.7 nM | 1.2 nM | 32 nM | 274 nM | CNS(=O)(=O)c1cc(-c2sc(Nc3cccc(N4CCNC4=O)n3)nc2C)cc2c1C(=O)N([C@@H](C)C(F)(F)F)C2 [Example 63, N-Methyl-6-(4-methyl-2-{[6-(2-oxoimidazolidin-1-yl)pyridin-2-yl]amino}-1,3-thiazol-5-yl)-3-oxo-2-[(2S)-1,1,1-trifluoropropan-2-yl]-2,3-dihydro-1H-isoindole-4-sulfonamide] |
